Results as given in patent publication US11358962B2, “2-hetaryl imidazol[1,2-a]pyridine derivatives” (Hoffmann-La Roche Inc., priority 2013, dated 2022).

System: native tau aggregates
Test: TAU radioligand in vitro displacement assay ([3H]T808, autoradiography on human AD brain sections)
Format: binding
Details: compound 10 nM, radioligand [3H]T808 10 nM
Description: TAU Radioligand-In-Vitro Displacement Assay
This in vitro binding assay assesses the affinity of compounds for native tau aggregates.
AD human brains are purchased from Banner Sun Health Research Institute (Sun City, Ariz., USA). Pathological diagnosis of AD is made according to standard NIA-Reagan Institute criteria based on neuropathological data. The radioligand [^3H]T808 was synthesized in-house ([^3H]-2-[4-(2-Fluoro-ethyl)-piperidin-1-yl]-benzo[4,5]imidazo[1,2-a]pyrimidine, radiochemical purity 99.0%). As a reference cold T808 is used (2-[4-(2-Fluoro-ethyl)-piperidin-1-yl]-benzo[4,5]imidazo[1,2-a]pyrimidine). For the autoradiography FujiFilm Imaging Plates (BAS-IP TR 2025) are exposed to the sections and read with a FujiFilm IP reader (BAS-5000).
Ten μm thick human AD brain sections are generated with a cryostat (Leica CM3050) at −17° C. chamber temperature and −15° C. object temperature. Sections are transferred to Histobond+ microscope slides (Marienfeld Laboratory Glasware). After drying for 3 hours at room temperature the sections are stored at −20° C. The sections are incubated with the radioligand (10 nM) and the respective cold compound (at various concentrations) in 50 mM Tris buffer, pH 7.4 at room temperature for 30 min. After washing 3× 10 min at 4° C. in 50 mM Tris buffer, pH 7.4 and 3 quick dips in H2O dist. at 4° C. the sections are dried at 4° C. for 3 h. The sections are placed in a FujiFilm Cassette (BAS 2025), exposed with an Imaging Plate for five days and afterwards scanned with a resolution of […].
The signal intensity (Dens−PSL/mm2) in the region of interest (ROI) of the autoradiogram is quantified with the software MCID analysis (version 7.0, Imaging Research Inc.). The specific binding (SB) of [^3H]T808 binding in absence or in presence of a compound is calculated by subtracting the non-specific binding signal in the white matter, thus yielding SB[3H]T808 only and SBcompound. The % displacement by the various compounds is calculated as following: % displacement=100−(SBcompound/SB[3H]T808 only)*100. Validation Data
In each experiment cold T808 is used as a positive internal control. Co-incubation of equimolar amounts of hot and cold T808 is expected to reduce specific binding by approximately 50%.

| SMILES | % displacement of [3H]T808 (10 nM) at 10 nM |
| --- | --- |
| CNc1ccn2cc(-c3ccc4c(c3)OCO4)nc2c1 [Example 37, (2-Benzo[1,3]dioxol-5-yl-imidazo[1,2-a]pyridin-7-yl)-methyl-amine] | 60% |
| CN(C)c1ccn2cc(-c3ccc4c(c3)OCO4)nc2c1 [Example 38, (2-Benzo[1,3]dioxol-5-yl-imidazo[1,2-a]pyridin-7-yl)-dimethyl-amine] | 52% |
| CN(CCF)c1ccn2cc(-c3ccc4c(c3)OCO4)nc2c1 [Example 39, (2-Benzo[1,3]dioxol-5-yl-imidazo[1,2-a]pyridin-7-yl)-(2-fluoro-ethyl)-methyl-amine] | 42% |
| Oc1ccc(-c2cn3ccc(N4CCC4)cc3n2)cc1 [Example 40, 4-(7-Azetidin-1-yl-imidazo[1,2-a]pyridin-2-yl)-phenol] | 37% |
| CN(C)c1ccc(-c2cn3ccc(N4CCC(F)CC4)cc3n2)cc1 [Example 41, {4-[7-(4-Fluoro-piperidin-1-yl)-imidazo[1,2-a]pyridin-2-yl]-phenyl}-dimethyl-amine] | 18% |
| F[C@@H]1CCN(c2ccn3cc(-c4ccccc4)nc3c2)C1 [Example 42, 7-((R)-3-Fluoro-pyrrolidin-1-yl)-2-phenyl-imidazo[1,2-a]pyridine] | 23% |
| CO[C@@H]1CCN(c2ccn3cc(-c4ccccc4)nc3c2)C1 [Example 43, 7-((R)-3-Methoxy-pyrrolidin-1-yl)-2-phenyl-imidazo[1,2-a]pyridine] | 15% |
| CNc1ccn2cc(-c3cccc(OC)c3)nc2c1 [Example 44, [2-(3-Methoxy-phenyl)-imidazo[1,2-a]pyridin-7-yl]-methyl-amine] | 29% |
| CNc1ccn2cc(-c3ccc(OCF)cc3)nc2c1 [Example 45, [2-(4-Fluoromethoxy-phenyl)-imidazo[1,2-a]pyridin-7-yl]-methyl-amine] | 45% |
| Cc1ccc(-c2cn3ccc(NCCF)cc3n2)cc1 [Example 46, (2-Fluoro-ethyl)-(2-p-tolyl-imidazo[1,2-a]pyridin-7-yl)-amine] | 27% |
| Cc1cccc(-c2cn3ccc(NCCF)cc3n2)c1 [Example 47, (2-Fluoro-ethyl)-(2-m-tolyl-imidazo[1,2-a]pyridin-7-yl)-amine] | 36% |
| CO[C@H]1CCN(c2ccn3cc(-c4cccc(C)c4)nc3c2)C1 [Example 48, 7-((S)-3-Methoxy-pyrrolidin-1-yl)-2-m-tolyl-imidazo[1,2-a]pyridine] | 8% |
| FCOc1ccc(-c2cn3ccc(N4CCOCC4)cc3n2)cc1 [Example 49, 2-(4-Fluoromethoxy-phenyl)-7-morpholin-4-yl-imidazo[1,2-a]pyridine] | 10% |
| FCCNc1ccn2cc(-c3ccc(OCF)cc3)nc2c1 [Example 50, (2-Fluoro-ethyl)-[2-(4-fluoromethoxy-phenyl)-imidazo[1,2-a]pyridin-7-yl]-amine] | 20% |
| FCCNc1ccn2cc(-c3ccc4c(c3)OCO4)nc2c1 [Example 51, (2-Benzo[1,3]dioxol-5-yl-imidazo[1,2-a]pyridin-7-yl)-(2-fluoro-ethyl)-amine] | 35% |
| Cc1ccc(-c2cn3ccc(N(C)C)cc3n2)cc1C [Example 52, [2-(3,4-Dimethyl-phenyl)-imidazo[1,2-a]pyridin-7-yl]-dimethyl-amine] | 27% |
| CNc1ccn2cc(-c3ccc(C)c(C)c3)nc2c1 [Example 53, [2-(3,4-Dimethyl-phenyl)-imidazo[1,2-a]pyridin-7-yl]-methyl-amine] | 25% |
| Cc1ccc(-c2cn3ccc(N4CCC4)cc3n2)cc1 [Example 54, 7-Azetidin-1-yl-2-p-tolyl-imidazo[1,2-a]pyridine] | 30% |
| Cc1cccc(-c2cn3ccc(N4CCC4)cc3n2)c1 [Example 55, 7-Azetidin-1-yl-2-m-tolyl-imidazo[1,2-a]pyridine] | 27% |
| CO[C@@H]1CCN(c2ccn3cc(-c4ccc(C)cc4)nc3c2)C1 [Example 56, 7-((R)-3-Methoxy-pyrrolidin-1-yl)-2-p-tolyl-imidazo[1,2-a]pyridine] | 28% |
| Cc1ccc(-c2cn3ccc(N4CCC(F)CC4)cc3n2)cc1 [Example 57, 7-(4-Fluoro-piperidin-1-yl)-2-p-tolyl-imidazo[1,2-a]pyridine] | 20% |
| FCCC1CCN(c2ccn3cc(-c4ccccc4)nc3c2)CC1 [Example 58, 7-[4-(2-Fluoro-ethyl)-piperidin-1-yl]-2-phenyl-imidazo[1,2-a]pyridine] | 12% |
| CO[C@H]1CCN(c2ccn3cc(-c4ccccc4)nc3c2)C1 [Example 59, 7-((S)-3-Methoxy-pyrrolidin-1-yl)-2-phenyl-imidazo[1,2-a]pyridine] | 36% |
| COc1cccc(-c2cn3ccc(N4CCC(F)CC4)cc3n2)c1 [Example 60, 7-(4-Fluoro-piperidin-1-yl)-2-(3-methoxy-phenyl)-imidazo[1,2-a]pyridine] | 14% |
| COc1ccc(-c2cn3ccc(N(C)CCF)cc3n2)cc1 [Example 65, (2-Fluoro-ethyl)-[2-(4-methoxy-phenyl)-imidazo[1,2-a]pyridin-7-yl]-methyl-amine] | 28% |
| CNc1ccn2cc(-c3ccc(OC)c(OC)c3)nc2c1 [Example 66, [2-(3,4-Dimethoxy-phenyl)-imidazo[1,2-a]pyridin-7-yl]-methyl-amine] | 40% |

More lines, now with the values ahead:

| % displacement of [3H]T808 (10 nM) at 10 nM | SMILES |
| --- | --- |
| 34% | COc1ccc(-c2cn3ccc(NC4CC4)cc3n2)cc1 [Example 67, Cyclopropyl-[2-(4-methoxy-phenyl)-imidazo[1,2-a]pyridin-7-yl]-amine] |
| 25% | FC1CCN(c2ccn3cc(-c4ccc5c(c4)OCO5)nc3c2)CC1 [Example 68, 2-Benzo[1,3]dioxol-5-yl-7-(4-fluoro-piperidin-1-yl)-imidazo[1,2-a]pyridine] |
| 22% | Cc1cccc(-c2cn3ccc(N4CCC(F)CC4)cc3n2)c1 [Example 69, 7-(4-Fluoro-piperidin-1-yl)-2-m-tolyl-imidazo[1,2-a]pyridine] |
| 32% | FCOc1ccc(-c2cn3ccc(N4CCC4)cc3n2)cc1 [Example 70, 7-Azetidin-1-yl-2-(4-fluoromethoxy-phenyl)-imidazo[1,2-a]pyridine] |
| 34% | CNc1ccn2cc(-c3ccc(SC)cc3)nc2c1 [Example 71, Methyl-[2-(4-methylsulfanyl-phenyl)-imidazo[1,2-a]pyridin-7-yl]-amine] |
| 25% | Cc1ccc(-c2cn3ccc(NCCF)cc3n2)cc1C [Example 72, [2-(3,4-Dimethyl-phenyl)-imidazo[1,2-a]pyridin-7-yl]-(2-fluoro-ethyl)-amine] |
| 21% | COc1ccc(-c2cn3ccc(NCCF)cc3n2)cc1OC [Example 73, [2-(3,4-Dimethoxy-phenyl)-imidazo[1,2-a]pyridin-7-yl]-(2-fluoro-ethyl)-amine] |
| 44% | CNc1ccn2cc(-c3ccc(OC)cc3)nc2c1 [Example 74, [2-(4-Methoxy-phenyl)-imidazo[1,2-a]pyridin-7-yl]-methyl-amine] |
| 42% | COc1ccc(-c2cn3ccc(NCCF)cc3n2)cc1 [Example 75, (2-Fluoro-ethyl)-[2-(4-methoxy-phenyl)-imidazo[1,2-a]pyridin-7-yl]-amine] |
| 31% | COc1cccc(-c2cn3ccc(NCCF)cc3n2)c1 [Example 76, (2-Fluoro-ethyl)-[2-(3-methoxy-phenyl)-imidazo[1,2-a]pyridin-7-yl]-amine] |
| 27% | COc1ccc(-c2cn3ccc(N4CCC(CCF)CC4)cc3n2)cc1 [Example 77, 7-[4-(2-Fluoro-ethyl)-piperidin-1-yl]-2-(4-methoxy-phenyl)-imidazo[1,2-a]pyridine] |
